Legend:
Type in all cases: biochemical
[1] = target: Rsk1 (Homo sapiens (Human), UniProt Q15418); assay: Inhibitory effects on Rsk1 kinase activity (QSS Assist FP assay kit); settings: Rsk1, ATP 30 μM; read-out: Rsk inhibitory activity IC50
Protocol: Inhibitory activity of the compound according to the present invention on Rsk1 kinase activity in vitro was assayed using the QSS Assist™ FP assay kit (Carna Biosciences, Inc.).
In the inhibition assay of inhibitory activity of the compound, the test compound was diluted by serial dilution with dimethyl sulfoxide (DMSO). Subsequently, an Rsk1 protein, a substrate peptide (final concentration: 100 nM), magnesium chloride (final concentration: 10 mM), ATP (final concentration: 30 μM), and the solution of the test compound in DMSO (DMSO final concentration: 5%) were added to the kinase reaction buffer (20 mM HEPES (pH 7.4), 2 mM dithiothreitol, 0.01% Tween-20), and the mixture was incubated at 25° C. for 40 minutes to perform the kinase reaction. The IMAP Progressive Binding Reagent diluted to 400-fold with the IMAP Progressive Binding Buffer A (Molecular Devices, LLC) was added to terminate the kinase reaction.

[2] = target: S6K1 (Homo sapiens (Human), UniProt P23443); assay: Inhibitory effects on S6K1 kinase activity (QSS Assist FP assay kit); settings: S6K1, ATP 25 μM; read-out: S6K inhibitory activity IC50
Protocol: Inhibitory activity of the compound according to the present invention on S6K1 kinase activity in vitro was assayed using the QSS Assist™ FP assay kit (Carna Biosciences, Inc.).
In the inhibition assay for inhibitory activity of the compound, the test compound was diluted by serial dilution with dimethyl sulfoxide (DMSO). Subsequently, an S6K protein, a substrate peptide (final concentration: 100 nM), magnesium chloride (final concentration: 5 mM), ATP (final concentration: 25 μM), and the solution of the test compound in DMSO (final DMSO concentration: 5%) were added to the kinase reaction buffer (20 mM HEPES (pH 7.4), 2 mM dithiothreitol, 0.01% Tween-20), and the mixture was incubated at 25° C. for 30 minutes to perform the kinase reaction. The IMAP Progressive Binding Reagent diluted to 400-fold with the IMAP Progressive Binding Buffer A (Molecular Devices, LLC) was added thereto to terminate the kinase reaction. The reaction product was allowed to stand at room temperature in the dark for 120 minutes and assayed with the use of PHERAstar (BMG LABTECH; excitation wavelength: 485 nm; detection wavelength: 520 nm). The level of phosphorylation reaction was determined based on the degree of fluorescence polarization, and the concentration of the compound at which phosphorylation could be inhibited by 50% was defined as the IC50 level (nM) and shown in Table 4.

[3] = target: human Akt1 (Homo sapiens (Human), UniProt P31749); assay: Inhibitory effects on Akt1 kinase activity (TR-FRET, biotinylated Crosstide); settings: Akt1, ATP 150 μM, pre-incubation 120 minutes at 25° C.; read-out: AKT inhibitory activity IC50
Protocol: Akt1 was prepared and assays of inhibitory activity of the compound according to the present invention against Akt1 kinase activity in vitro were conducted according to the method described in Biochem. J., vol. 385, pp. 399-408, 2005 and Cancer Res., vol. 68, pp. 2366-2374, 2008. In the preparation of Akt1 protein, human Akt1 tagged with the middle T antigen was expressed in an insect cell Sf9, Akt1 was prepared through affinity purification and activation by PDK1, and the resultant was stored at −80° C. until the inhibition assays of the compounds. In the inhibition assay of the compounds, Akt1 and the compound according to the present invention were subjected to pre-incubation at 25° C. for 120 minutes in a reaction buffer (15 mM Tris-HCl, pH 7.5, 0.01% Tween-20, 2 mM DTT). Subsequently, biotinylated Crosstide (biotin-[…], Millipore), MgCl2, and ATP were added as substrates at the final concentration of 500 nM, 10 mM, and 150 μM, respectively, and the reaction was allowed to proceed at 25° C. for 60 minutes. EDTA was added to the final concentration of 40 mM to terminate the reaction, a detection liquid containing the Eu-anti-phospho-Crosstide antibody (PerkinElmer) and SureLight APC-SA (PerkinElmer) at the final concentration of 0.5 nM and 62.5 nM, respectively was added, and the reaction was allowed to proceed at room temperature for 2 hours. In the end, the fluorescence levels irradiated with an excitation light of 337 nm were assayed at two different wavelength levels (i.e., 620 nm and 665 nm) using PI-HERAstar FS (BMG LABTECH) or PHERAstar (BMG LABTECH). The level of the phosphorylation reaction was determined on the basis of the ratio of fluorescence levels at two wavelength levels, and the concentration of the compound at which phosphorylation could be inhibited by 50% was defined as the IC50 level (nM) and shown in Table 2.
As reference compounds, conventional Comparative Example A (WO 2010/056563 (Example 31)) and Comparative Example B having inhibitory activity against Akt were used.

Chain of Rsk1 (Q15418 whole entry): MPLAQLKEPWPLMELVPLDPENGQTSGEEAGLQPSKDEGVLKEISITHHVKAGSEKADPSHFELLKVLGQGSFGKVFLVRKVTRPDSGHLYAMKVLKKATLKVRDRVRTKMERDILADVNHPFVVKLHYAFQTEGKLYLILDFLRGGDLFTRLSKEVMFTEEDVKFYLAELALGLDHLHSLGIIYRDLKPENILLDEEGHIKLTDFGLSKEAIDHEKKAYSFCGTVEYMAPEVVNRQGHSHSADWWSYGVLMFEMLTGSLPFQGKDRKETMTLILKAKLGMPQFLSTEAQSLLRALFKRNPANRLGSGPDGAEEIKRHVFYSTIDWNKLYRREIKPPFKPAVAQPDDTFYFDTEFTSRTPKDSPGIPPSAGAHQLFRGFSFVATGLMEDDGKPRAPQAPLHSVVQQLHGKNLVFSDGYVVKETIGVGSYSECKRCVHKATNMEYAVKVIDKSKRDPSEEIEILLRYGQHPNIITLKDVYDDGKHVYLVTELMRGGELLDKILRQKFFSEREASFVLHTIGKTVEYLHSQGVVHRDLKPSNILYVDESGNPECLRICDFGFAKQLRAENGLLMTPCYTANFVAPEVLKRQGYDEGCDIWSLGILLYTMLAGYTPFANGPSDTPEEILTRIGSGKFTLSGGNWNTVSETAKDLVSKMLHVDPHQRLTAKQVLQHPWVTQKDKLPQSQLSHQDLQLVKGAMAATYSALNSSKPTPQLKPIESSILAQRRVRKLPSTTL
Chain of S6K1 (P23443 whole entry): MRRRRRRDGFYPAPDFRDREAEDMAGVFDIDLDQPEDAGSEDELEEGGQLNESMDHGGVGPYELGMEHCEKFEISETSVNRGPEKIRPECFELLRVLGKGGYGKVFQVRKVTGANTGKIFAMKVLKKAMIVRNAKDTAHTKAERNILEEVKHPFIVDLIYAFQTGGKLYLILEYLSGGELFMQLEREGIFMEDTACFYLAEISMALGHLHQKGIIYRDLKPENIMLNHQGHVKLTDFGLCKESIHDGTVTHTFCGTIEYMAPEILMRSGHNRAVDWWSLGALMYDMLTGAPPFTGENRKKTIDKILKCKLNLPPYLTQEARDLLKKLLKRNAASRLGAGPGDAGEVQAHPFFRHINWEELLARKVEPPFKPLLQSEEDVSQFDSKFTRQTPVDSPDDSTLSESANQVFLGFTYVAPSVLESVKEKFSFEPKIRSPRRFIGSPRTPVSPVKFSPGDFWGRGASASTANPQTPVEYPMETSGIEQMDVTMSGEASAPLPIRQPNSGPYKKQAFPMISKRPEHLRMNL
Chain of human Akt1 (P31749 whole entry): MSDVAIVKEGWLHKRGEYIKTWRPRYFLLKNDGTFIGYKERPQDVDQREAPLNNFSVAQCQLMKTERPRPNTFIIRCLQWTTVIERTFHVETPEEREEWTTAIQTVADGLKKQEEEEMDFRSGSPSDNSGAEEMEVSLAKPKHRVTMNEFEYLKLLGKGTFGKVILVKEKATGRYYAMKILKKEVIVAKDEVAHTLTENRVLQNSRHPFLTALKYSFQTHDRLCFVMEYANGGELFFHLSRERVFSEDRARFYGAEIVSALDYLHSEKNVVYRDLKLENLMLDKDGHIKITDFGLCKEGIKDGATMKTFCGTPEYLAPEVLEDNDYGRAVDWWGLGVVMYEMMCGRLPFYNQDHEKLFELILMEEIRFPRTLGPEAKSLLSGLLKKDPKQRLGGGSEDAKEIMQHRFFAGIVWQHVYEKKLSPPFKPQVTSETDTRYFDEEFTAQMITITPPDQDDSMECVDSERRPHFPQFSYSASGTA

Row | Structure (SMILES) | IC50 [1] | IC50 [2] | IC50 [3]
1 | CC1(C)C(=O)Nc2ncnc(N3CCC(c4nc(-c5ccc(F)nc5)ccc4NCCN4CCCC4)CC3)c21 [Compound 2, 4-(4-(6′-Fluoro-5-((2-(pyrrolidin-1-yl)ethyl)amino)-[2,3′-bipyridin]-6-yl)piperidin-1-yl)-5,5-dimethyl-5H-pyrrolo[2,3-d]pyrimidin-6(7H)-one] | 1.5 nM | 0.3 nM | –
2 | Cc1cc(-c2ccc(NCCN3CCCC3)c(C3CCN(c4ncnc5c4C(C)(C)C(=O)N5)CC3)n2)n(C)n1 [Compound 3, 4-(4-(6-(1,3-Dimethyl-1H-pyrazol-5-yl)-3-((2-(pyrrolidin-1-yl)ethyl)amino)pyridin-2-yl)piperidin-1-yl)-5,5-dimethyl-5H-pyrrolo[2,3-d]pyrimidin-6(7H)-one] | – | 0.4 nM | –
3 | CC(C)(C)NCCNc1ccc(-c2cnn(C(F)F)c2)nc1C1CCN(c2ncnc3c2C(C)(C)C(=O)N3)CC1 [Compound 4] | – | 0.4 nM | –
4 | CC(C)NCCNc1ccc(-c2cnc(F)c(F)c2)nc1C1CCN(c2ncnc3c2C(C)(C)C(=O)N3)CC1 [Compound 5, 4-(4-(5′,6′-Difluoro-5-((2-(isopropylamino)ethyl)amino)-[2,3′-bipyridin]-6-yl)piperidin-1-yl)-5,5-dimethyl-5H-pyrrolo[2,3-d]pyrimidin-6(7H)-one] | 0.7 nM | 0.3 nM | 3.5 nM
5 | Cc1nc(C)c(-c2ccc(NCCNC(C)C)c(C3CCN(c4ncnc5c4C(C)(C)C(=O)N5)CC3)n2)s1 [Compound 6, 4-(4-(6-(2,4-Dimethylthiazol-5-yl)-3-((2-(isopropylamino)ethyl)amino)pyridin-2-yl)piperidin-1-yl)-5,5-dimethyl-5H-pyrrolo[2,3-d]pyrimidin-6(7H)-one] | 1 nM | 0.4 nM | –
6 | COc1cncc(-c2ccc(NCCN3CCCC3)c(C3CCN(c4ncnc5c4C(C)(C)C(=O)N5)CC3)n2)c1 [Compound 7, 4-(4-(5′-Methoxy-5-((2-(pyrrolidin-1-yl)ethyl)amino)-[2,3′-bipyridin]-6-yl)piperidin-1-yl)-5,5-dimethyl-5H-pyrrolo[2,3-d]pyrimidin-6(7H)-one] | 1.7 nM | 0.3 nM | –
7 | CC1(C)C(=O)Nc2ncnc(N3CCC(c4nc(-c5cncc(F)c5)ccc4NCCN4CCCC4)CC3)c21 [Compound 8, 4-(4-(5′-Fluoro-5-((2-(pyrrolidin-1-yl)ethyl)amino)-[2,3′-bipyridin]-6-yl)piperidin-1-yl)-5,5-dimethyl-5H-pyrrolo[2,3-d]pyrimidin-6(7H)-one] | 1.7 nM | 0.3 nM | –
8 | CN(C)CCNc1ccc(-c2cc(Cl)nn2C)nc1C1CCN(c2ncnc3c2C(C)(C)C(=O)N3)CC1 [Compound 9, 4-(4-(6-(3-Chloro-1-methyl-1H-pyrazol-5-yl)-3-((2-(dimethylamino)ethyl)amino)pyridin-2-yl)piperidin-1-yl)-5,5-dimethyl-5H-pyrrolo[2,3-d]pyrimidin-6(7H)-one] | 1.1 nM | 0.3 nM | –
9 | CC(C)NCCNc1ccc(-c2cc(C(F)(F)F)nn2C)nc1C1CCN(c2ncnc3c2C(C)(C)C(=O)N3)CC1 [Compound 10, 4-(4-(3-((2-(Isopropylamino)ethyl)amino)-6-(1-methyl-3-(trifluoromethyl)-1H-pyrazol-5-yl)pyridin-2-yl)piperidin-1-yl)-5,5-dimethyl-5H-pyrrolo[2,3-d]pyrimidin-6(7H)-one] | 0.9 nM | 0.3 nM | –
10 | CC(C)NCCNc1ccc(-c2cc(Cl)nn2C)nc1C1CCN(c2ncnc3c2C(C)(C)C(=O)N3)CC1 [Compound 11, 4-(4-(6-(3-Chloro-1-methyl-1H-pyrazol-5-yl)-3-((2-(isopropylamino)ethyl)amino)pyridin-2-yl)piperidin-1-yl)-5,5-dimethyl-5H-pyrrolo[2,3-d]pyrimidin-6(7H)-one] | 0.7 nM | 0.3 nM | 5.8 nM

The next lines start with the values.

Row | IC50 [1] | IC50 [2] | IC50 [3] | Structure (SMILES)
11 | 1.8 nM | 0.3 nM | – | CCNCCNc1ccc(-c2cncc(F)c2)nc1C1CCN(c2ncnc3c2C(C)(C)C(=O)N3)CC1 [Compound 12, 4-(4-(5-((2-(Ethylamino)ethyl)amino)-5′-fluoro[2,3′-bipyridin]-6-yl)piperidin-1-yl)-5,5-dimethyl-5H-pyrrolo[2,3-d]pyrimidin-6(7H)-one]
12 | – | – | 1.8 nM | Cc1ncccc1-c1ccc(NCCN2CCCC2)c(C2CCN(c3ncnc4c3C(C)C(=O)N4)CC2)n1 (stereo not shown) [Compound 22, 5-Methyl-4-(4-(2′-methyl-5-((2-(pyrrolidin-1-yl)ethyl)amino)-[2,3′-bipyridin]-6-yl)piperidin-1-yl)-5H-pyrrolo[2,3-d]pyrimidin-6(7H)-one]
13 | – | – | 2.7 nM | CC1C(=O)Nc2ncnc(N3CCC(c4nc(-c5ncco5)ccc4NCCN4CCCC4)CC3)c21 (stereo not shown) [Compound 25, 5-Methyl-4-(4-(6-(oxazol-2-yl)-3-((2-(pyrrolidin-1-yl)ethyl)amino)pyridin-2-yl)piperidin-1-yl)-5H-pyrrolo[2,3-d]pyrimidin-6(7H)-one]
14 | – | 0.3 nM | – | CC(C)NCCNc1cc(F)c(-c2cncc(F)c2)nc1C1CCN(c2ncnc3c2C(C)(C)C(=O)N3)CC1 [Compound 28, 4-(4-(3,5′-Difluoro-5-((2-(isopropylamino)ethyl)amino)-[2,3′-bipyridin]-6-yl)piperidin-1-yl)-5,5-dimethyl-5H-pyrrolo[2,3-d]pyrimidin-6(7H)-one]
15 | – | 0.8 nM | – | CC1C(=O)Nc2ncnc(N3CCN(c4nc(-c5cncc(F)c5)ccc4NCCN(C)C)CC3)c21 (stereo not shown) [Compound 29, 4-(4-(5-((2-(Dimethylamino)ethyl)amino)-5′-fluoro-[2,3′-bipyridin]-6-yl)piperazin-1-yl)-5-methyl-5H-pyrrolo[2,3-d]pyrimidin-6(7H)-one]
16 | 1.5 nM | 0.4 nM | – | CC1(C)C(=O)Nc2ncnc(N3CCC(c4nc(-c5nnc(C(F)(F)F)o5)ccc4NC[C@@H]4CCCN4)CC3)c21 [Compound 35, (S)-5,5-Dimethyl-4-(4-(3-((pyrrolidin-2-yl-methyl)amino)-6-(5-(trifluoromethyl)-1,3,4-oxadiazol-2-yl)pyridin-2-yl)piperidin-1-yl)-5H-pyrrolo[2,3-d]pyrimidin-6(7H)-one]
17 | – | 0.4 nM | – | Cc1nnc(-c2ccc(NCCN3CCCC3)c(C3CCN(c4ncnc5c4C(C)(C)C(=O)N5)CC3)n2)s1 [Compound 36, 5,5-Dimethyl-4-(4-(6-(5-methyl-1,3,4-thiadiazol-2-yl)-3-((2-(pyrrolidin-1-yl)ethyl)amino)pyridin-2-yl)piperidin-1-yl)-5H-pyrrolo[2,3-d]pyrimidin-6(7H)-one]
18 | 0.9 nM | 0.3 nM | – | CN(C)CCNc1ccc(-c2nnc(C(F)F)s2)nc1C1CCN(c2ncnc3c2C(C)(C)C(=O)N3)CC1 [Compound 38, 4-(4-(6-(5-(Difluoromethyl)-1,3,4-thiadiazol-2-yl)-3-((2-(dimethylamino)ethyl)amino)pyridin-2-yl)piperidin-1-yl)-5,5-dimethyl-5H-pyrrolo[2,3-d]pyrimidin-6(7H)-one]

From patent US10538528B2, “5H-pyrrolo[2,3-D]pyrimidin-6(7H)-one derivative” (Taiho Pharmaceutical Co., Ltd., priority 2016, dated 2020)
